These results are taken from US20100239670A1, “Topical Composition Method for Treating Urinary Stress Incontinence” (Plethora Solutions Ltd., priority 2000, published 2010).

The test system of data set [1] is female patients with documented history of stress incontinence. Nature of the data set: Supine and standing blood pressure and pulse rate in the same cross-over study. To be noted: single topical dose, gel 0.5 ml, 20% w/w; up to 5 hours post dosing. Format: in vivo. How it is done: (§1) The invention has been evaluated in a double-blind, randomised, 2-way cross-over study in female patients with documented history of stress incontinence. Each patient was exposed to both placebo and active drug over the course of the study.
(§2) Each patient received either a single dose of topical phenylephrine gel (20% w/w in a volume of 0.5 ml) or placebo according to the randomisation schedule. The gel was applied to the peri-urethral area; in, onto or around the area of the vagina and/or vaginal mucosa, in close proximity to the urethra. For up to 5 hours post dosing, urethral pressure was measured using the standard Lectromed/Galetec MPR/2 ambulatory measurement system. Supine and standing blood pressure and pulse rate was likewise measured using standard methodology via a Dinamap semi-automatic sphygmomanometer.

For data set [2] the following is noted: literature, cited from earlier work.
Data set [3] has as its system female patients with documented history of stress incontinence. Nature of the data set: Urethral pressure after topical gel, double-blind randomised 2-way cross-over study. Format: in vivo. To be noted: single topical dose, gel 0.5 ml, 20% w/w, applied to peri-urethral area; up to 5 hours post dosing; in contrast to placebo; two typical patients (FIGS. 1 and 2). As to the method: as §1, §2

Take `CNC[C@H](O)c1cccc(O)c1` [phenylephrine]: in data set [1], the “diastolic or systolic blood pressure” value was “no clinically significant changes” and the pulse rate result is “no clinically significant changes”. Also, the blood pressure result in data set [2] (not topical) was “substantial elevations”. In addition, in data set [2], the duration of action result is “short”. For the same molecule, the oral bioavailability result in data set [2] (oral) is on record as “low”. Further, the intra-urethral pressure result in data set [3] is “marked and sustained increases”.
